Test results published in US10130598B2, “Methods and compositions for administration of 3-halopyruvate and related compounds for the treatment of cancer” (The Johns Hopkins University, priority 2008, dated 2018).

How the values were obtained:
[1] = tested on: MCF7 cells; experiment: Luminescence ATP assay, MCF7; type: cell-based
Protocol: (§1) Cytotoxicity of 3-BrPA was evaluated by the IC50 values, representing the drug concentration which depletes ATP by 50% compared to non-treated control. On day 1, cells were seeded into 96-well plates in a volume of 100 μl per well. On day 2, the medium of all wells was removed and an aliquot of 100 μl of media having serial dilutions of 3-BrPA in PBS, NaHCO3, NaOH, KOH and KHCO3 was added to the appropriate well. After 24 h of drug exposure cytotoxic effects of 3-BrPA were monitored by cellular ATP level using CellTiter-Glo™ assay reagents from Promega Corp (Madison, Wis.). Briefly, 100 μl assay reagent was added to each well and mixed at room temperature for 2 min to develop luminescent signal. The luminescence intensity (cps) from each sample was determined with a spectrometer (Model Victor III, Perkin Elmer, Mass.). Relative luminescence was calculated in proportion to the numbers of living cells per sample well. The results are expressed as the mean of three independent experiments. The intracellular ATP contents were calculated and normalized by equal cell number and expressed as the percentage of the control cells. The IC50 values were estimated graphically from dose-response plots.
The anti-metabolic effect of 3-BrPA on MCF7 and MDA MB231 cells was examined using luminescence ATP assays, as described above. […]

[2] = tested on: H1299 cells; experiment: Luminescence ATP assay, H1299; type: cell-based
Protocol: as §1
The anti-metabolic effect of 3-BrPA on H1299 cells was examined using luminescence ATP assays, as described above. […]

[3] = tested on: HepG2 cells; experiment: ATP dependent luminescence cell viability assay, HepG2; type: cell-based
Source text: (§2) The non-small cell lung cancer (NSCLC) cell line NCI-H1299, the breast cancer cell lines MCF7 and MDA MB 231 and the Hep3B, Hep2G and SK-Hep1 cells were obtained from the American Type Culture Collection (ATCC) (Manassas, Va., USA) and maintained as a monolayer culture in Eagle's minimum essential medium (MEM, Invitrogen, Gaithersburg, Md., USA) supplemented with 10% fetal bovine serum at 37 C and 5% CO2. All treatments were done in triplicate samples on 96-well plates. VX2 cells were maintained as described in Geschwind et al., Cancer Res., 62:3909-3913 (2002).
(§3) Cytotoxicity of 3-BrPA was evaluated by the IC50 values, representing the drug concentration which depletes ATP by 50% compared to non-treated control. On day 1, cells were seeded into 96-well plates in a volume of 100 μl per well. On day 2, the medium of all wells was removed and an aliquot of 100 μl of media having serial dilutions of 3-BrPA in PBS, NaHCO3, NaOH, KOH and KHCO3 was added to the appropriate well. […] Briefly, 100 μl assay reagent was added to each well and mixed at room temperature for 2 min to develop luminescent signal. The luminescence intensity (cps) from each sample was determined with a spectrometer (Model Victor III, Perkin Elmer, Mass.). […]
(§4) The effects on cell viability and cellular metabolism of 3-BrPA on Hep3B and VX2 cells were examined using luminescence ATP assays, as described above. […]

[4] = tested on: SK-Hep 1 cells; experiment: ATP dependent luminescence cell viability assay, SK-Hep1; type: cell-based
Source text: as §2, §3, §4

[5] = tested on: Human PANC-10 pancreatic cancer cells; experiment: Orthotopic xenograft pancreatic cancer model, oral 3-BrPA; type: in vivo, NOD/SCID mice; details: for Tumor size at day 50: NaHCO3-buffered, oral
Protocol: The efficacy of orally administered 3-BrPA in the treatment of pancreatic cancer was tested using an orthotopic xenograft pancreatic cancer model. Human PANC-10 pancreatic cancer cells were implanted into the pancreas of NOD/SCID mice and allowed to form 4-5 mm^3 sized tumors. Following the establishment of the tumors, tumor-bearing mice were orally administered 250 μl of a NaHCO3-buffered solution containing varying concentrations of 3-BrPA once per day. After 50 days of treatment, the tumor-bearing mice were sacrificed and tumor growth and cancer cell proliferation was analyzed.

[6] = ATP luminescent assay of 3-BrPA dissolved in alternative buffers; type: cell-based
Protocol: as §1
Based on the results described in Example 1, it was concluded that 10 mg of 3-BrPA is the maximum tolerated dose (MTD) if dissolved in 2.75 ml of PBS. […]

[7] = tested on: tumors implanted in rabbit livers; details: cited from earlier work

With `O=C(O)C(=O)CBr` [3-BrPA, 3-bromopyruvate] the “ATP level (bioluminescent quantification)” value [1] was “dose and time dependent energy (ATP) depletion”, the “ATP level (bioluminescent quantification)” value [2] was “dose and time dependent energy (ATP) depletion” and the “Level of ATP” value ([3]; 3, 24, 48 hours) was “dose and time dependent decrease”. For the same compound, the IC50 ([3]; at 48 hours, read-out: IC50 (ATP depletion)) was 125 µM, the “Level of ATP” value ([4]; SK-Hep1, 3, 24, 48 hours) was “dose and time dependent decrease” and the IC50 ([4]; SK-Hep 1, at 48 hours, read-out: IC50 (ATP depletion)) was 125 µM. The “Tumor size at day 50” value ([5]; daily dose of 50 mg/kg) was 12-14 mm^3, the “Tumor size at day 50” value ([5]; daily dose of 100 mg/kg) was 7-8 mm^3 and the “Tumor size at day 50” value ([5]; daily dose of 150 mg/kg) was 4-6 mm^3. The “Tumor size at day 50” value ([5]; daily dose of 200 mg/kg) was 3-5 mm^3, the Local metastases ([5]; daily dose of 50 mg/kg) was “lacked any signs of local metastases” and the Mitotic index ([5]; daily dose of 50 mg/kg) was 9-10 mitotic cells per field. The Local metastases ([5]; daily dose of 100 mg/kg) was “lacked any signs of local metastases”, the Mitotic index ([5]; daily dose of 100 mg/kg) was 7 mitotic cells per field and the Local metastases ([5]; daily dose of 150 mg/kg) was “lacked any signs of local metastases”. For the same compound, the Mitotic index ([5]; daily dose of 150 mg/kg) was 2-4 mitotic cells per field, the Local metastases ([5]; daily dose of 200 mg/kg) was “lacked any signs of local metastases” and the Mitotic index ([5]; daily dose of 200 mg/kg) was 1-2 mitotic cells per field. The Tumor growth ([5]; daily dose of 200 mg/kg, day 50) was “no signs of growth”, the “IC50 value compared to 3-BrPA dissolved in PBS” value ([6]; dissolved in NaHCO3) was “did not show a significantly different in IC50 value” and the “IC50 value compared to 3-BrPA dissolved in PBS” value ([6]; other buffers tested (NaOH, KOH and KHCO3)) was “significantly higher IC50 values”. The Tumor eradication ([7]; administered directly into the liver by intra-arterial injection) was “completely eradicate tumors”, the Therapeutic dose ([7]; in 25 ml of PBS, continuous 1 hour intra-arterial infusion) was 1.75 mM and the “Biodistribution: tumor uptake” value ([7]; intra-arterially delivered) was “high tumor uptake”. The “Effects on healthy tissue” value ([7]; intra-arterially delivered) was “no negative effects on healthy tissue”.
